In patent US11912668B2, “GCN2 and perk kinase inhibitors and methods of use thereof” (Deciphera Pharmaceuticals, LLC, priority 2020, dated 2024):

Columns and labels:
PERK kinase = PERK kinase (Homo sapiens (Human), UniProt Q9NZJ5); experiment: Biochemical assay for PERK (coupled pyruvate kinase/lactate dehydrogenase assay); conditions: 1 mM ATP, rate from 2-3 h time frame
Method: Activity of PERK kinase was determined spectroscopically using a coupled pyruvate kinase/lactate dehydrogenase assay that continuously monitors the ATP hydrolysis-dependent oxidation of NADH (e.g., Schindler et al. Science (2000) 289: 1938-1942). Assays were conducted in 384-well plates (100 μL final volume) using 10 nM PERK (from Beryllium), 0.25 mg/mL Myelin Basic Protein substrate, 1.5 units pyruvate kinase, 2.1 units lactate dehydrogenase, 1 mM phosphoenol pyruvate, 0.28 mM NADH and 1 mM ATP in assay buffer (100 mM Tris, pH 7.5, 15 mM MgCl2, 0.5 mM DTT, 0.004% (w/v) BSA, and 0.004% Triton X-100). Inhibition of PERK was measured by adding serial diluted test compound (final assay concentration of 1% DMSO). A decrease in absorption at 340 nm was monitored continuously for 6 hours at 30° C. on a multi-mode microplate reader (BioTek). The reaction rate was calculated using the 2-3 h time frame. The reaction rate at each concentration of compound was converted to percent inhibition using controls (i.e. reaction with no test compound and reaction with a known inhibitor) and IC50 values were calculated using software routines in Prism (GraphPad software).

GCN2 kinase = GCN2 kinase (Homo sapiens (Human), UniProt Q9P2K8); experiment: Biochemical assay for GCN2 (TR-FRET kinase activity assay); conditions: 1 mM ATP, 3-hour incubation
Method: Activity of GCN2 kinase was determined using a TR-FRET kinase activity assay (e.g. Riddle et al. Analytical Biochemistry (2006) 356(1) 108-116). Assays were conducted in 384-well plates (13 μL assay volume) using 2 nM GCN2 (Carna Biosciences), 130 nM GFP-EIf2α (Invitrogen), 0.2 mg/mL E. coli tRNA (sigma) and 1 mM ATP in kinase buffer (Invitrogen). Inhibition of GCN2 was measured by adding serial diluted test compound (final assay concentration of 0.5% DMSO) followed by a 3-hour incubation. Tb-peIF2α (pSer52) antibody (Invitrogen) (2 nM final assay concentration) in kinase buffer containing ETDA (final assay concentration of 20 mM) was added. After a 60 min incubation at room temperature, TR-FRET was monitored using an excitation wavelength of 340 nm and emission wavelengths of 490 nm and 520 nm. The emission ratio (520/490) at each compound concentration of was converted to percent inhibition using controls (i.e. reaction with no test compound and reaction with a known inhibitor) and IC50 values were calculated by fitting a four-parameter sigmoidal curve to the data using Prism (GraphPad software).

Chain of GCN2 kinase (Q9P2K8 whole entry): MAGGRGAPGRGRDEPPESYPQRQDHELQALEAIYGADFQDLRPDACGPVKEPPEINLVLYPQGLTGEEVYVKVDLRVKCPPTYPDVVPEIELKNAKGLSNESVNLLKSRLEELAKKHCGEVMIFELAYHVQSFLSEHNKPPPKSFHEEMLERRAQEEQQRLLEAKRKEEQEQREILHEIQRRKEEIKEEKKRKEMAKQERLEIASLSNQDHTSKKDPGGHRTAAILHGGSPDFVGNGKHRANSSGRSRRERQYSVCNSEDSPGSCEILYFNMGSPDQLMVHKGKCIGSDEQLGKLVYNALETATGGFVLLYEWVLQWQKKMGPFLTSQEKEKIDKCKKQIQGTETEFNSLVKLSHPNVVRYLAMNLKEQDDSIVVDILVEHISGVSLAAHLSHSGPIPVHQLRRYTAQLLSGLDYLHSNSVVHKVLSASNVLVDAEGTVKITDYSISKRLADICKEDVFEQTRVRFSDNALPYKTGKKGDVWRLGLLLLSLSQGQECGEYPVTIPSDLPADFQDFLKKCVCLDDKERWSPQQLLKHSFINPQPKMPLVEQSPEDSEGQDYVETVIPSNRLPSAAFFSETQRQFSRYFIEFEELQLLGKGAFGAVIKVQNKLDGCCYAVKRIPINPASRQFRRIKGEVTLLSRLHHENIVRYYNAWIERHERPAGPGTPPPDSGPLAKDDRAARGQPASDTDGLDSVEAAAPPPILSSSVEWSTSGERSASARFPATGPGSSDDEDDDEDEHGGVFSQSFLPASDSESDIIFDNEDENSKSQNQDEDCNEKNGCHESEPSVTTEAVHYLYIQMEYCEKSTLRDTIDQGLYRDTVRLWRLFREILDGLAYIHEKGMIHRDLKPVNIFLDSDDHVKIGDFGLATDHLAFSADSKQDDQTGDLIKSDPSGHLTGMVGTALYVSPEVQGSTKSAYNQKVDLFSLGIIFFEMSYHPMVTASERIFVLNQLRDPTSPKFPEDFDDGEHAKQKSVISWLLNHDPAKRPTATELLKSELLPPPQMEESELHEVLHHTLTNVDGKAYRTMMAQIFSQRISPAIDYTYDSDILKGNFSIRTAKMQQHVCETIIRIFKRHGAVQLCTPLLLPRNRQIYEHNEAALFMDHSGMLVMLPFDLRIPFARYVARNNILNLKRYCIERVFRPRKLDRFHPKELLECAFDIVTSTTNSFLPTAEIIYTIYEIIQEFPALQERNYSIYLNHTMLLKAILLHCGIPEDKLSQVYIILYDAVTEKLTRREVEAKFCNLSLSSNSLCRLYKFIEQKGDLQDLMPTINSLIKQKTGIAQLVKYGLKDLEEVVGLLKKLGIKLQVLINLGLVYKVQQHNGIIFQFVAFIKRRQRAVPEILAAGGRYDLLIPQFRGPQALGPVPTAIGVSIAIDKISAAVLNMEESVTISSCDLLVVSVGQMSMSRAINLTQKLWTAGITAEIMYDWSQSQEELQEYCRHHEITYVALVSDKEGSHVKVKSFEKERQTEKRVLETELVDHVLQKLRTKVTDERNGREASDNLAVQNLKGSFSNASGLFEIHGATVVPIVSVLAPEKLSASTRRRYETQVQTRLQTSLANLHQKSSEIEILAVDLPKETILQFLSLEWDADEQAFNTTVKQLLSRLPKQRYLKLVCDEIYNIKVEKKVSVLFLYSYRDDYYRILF
Chain of PERK kinase (Q9NZJ5 other isoform, or with tags, fused parts or gaps): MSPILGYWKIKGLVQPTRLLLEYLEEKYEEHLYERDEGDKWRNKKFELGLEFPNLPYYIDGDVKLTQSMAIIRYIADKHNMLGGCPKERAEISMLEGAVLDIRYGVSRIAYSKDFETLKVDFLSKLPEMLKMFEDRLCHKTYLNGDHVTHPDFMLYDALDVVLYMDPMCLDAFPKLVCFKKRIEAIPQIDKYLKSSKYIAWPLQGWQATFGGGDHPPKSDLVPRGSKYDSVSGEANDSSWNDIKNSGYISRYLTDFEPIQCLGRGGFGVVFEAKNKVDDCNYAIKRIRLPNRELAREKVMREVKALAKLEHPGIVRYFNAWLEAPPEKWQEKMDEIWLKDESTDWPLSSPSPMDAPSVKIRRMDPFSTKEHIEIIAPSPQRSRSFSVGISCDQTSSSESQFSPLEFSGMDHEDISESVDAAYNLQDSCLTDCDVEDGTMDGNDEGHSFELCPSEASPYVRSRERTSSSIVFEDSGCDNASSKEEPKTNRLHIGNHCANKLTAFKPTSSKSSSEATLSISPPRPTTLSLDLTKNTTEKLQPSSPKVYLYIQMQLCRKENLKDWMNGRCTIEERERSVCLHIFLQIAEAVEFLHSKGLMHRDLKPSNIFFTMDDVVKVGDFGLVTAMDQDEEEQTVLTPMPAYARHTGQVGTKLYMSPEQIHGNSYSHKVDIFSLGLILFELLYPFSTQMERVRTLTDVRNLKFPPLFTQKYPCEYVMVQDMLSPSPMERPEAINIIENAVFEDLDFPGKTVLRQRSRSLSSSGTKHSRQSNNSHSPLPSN

| SMILES | IC50 (PERK kinase) [nM] | IC50 (GCN2 kinase) [nM] |
| --- | --- | --- |
| COc1ncc(Cl)cc1S(=O)(=O)Nc1ccc(C)c(-c2ccc3cc(N)ncc3c2)c1 [Example 28] | 100 to 500 | 1000 to 10000 |
| COc1ncc(Cl)cc1S(=O)(=O)Nc1cccc(-c2ccc3cc(N)ncc3c2)c1F [Example 29] | ≤ 100 | 100 to 500 |
| CNc1cc2nc(C)c(-c3cc(NS(=O)(=O)c4cc(Cl)cnc4OC)ccc3C)cc2cn1 [Example 32] | ≤ 100 | ≤ 100 |
| CNc1ncc2cc(-c3cc(NS(=O)(=O)c4cc(Cl)cnc4OC)cc(F)c3C)c(NC)nc2n1 [Example 34] | 100 to 500 | ≤ 100 |
| CNc1ncc2cc(-c3cc(NS(=O)(=O)c4cncc(Cl)c4)c(F)cc3C)c(C)nc2n1 [Example 42] | 1000 to 10000 | 1000 to 10000 |
| CNc1ncc2cc(-c3cccc(NS(=O)(=O)c4cc(Cl)cnc4OC)c3)ccc2n1 [Example 43] | 1000 to 10000 | 1000 to 10000 |
| CNc1ncc2cc(-c3ccc(F)c(NS(=O)(=O)c4cc(Cl)cnc4OC)c3F)c(C)nc2n1 [Example 46] | 1000 to 10000 | 100 to 500 |
| CNc1ncc2cc(-c3cccc(NS(=O)(=O)c4cc(Cl)cnc4OC)c3)c(C)nc2n1 [Example 47] | 100 to 500 | ≤ 100 |
| CNc1ncc2cc(-c3cccc(NS(=O)(=O)c4cc(Cl)cnc4OC)c3C)ccc2n1 [Example 52] | 100 to 500 | 100 to 500 |
| CNc1ncc2cc(-c3cc(NS(=O)(=O)c4cc(Cl)cnc4OC)ccc3F)ccc2n1 [Example 54] | 100 to 500 | 500 to 1000 |
| CNc1ncc2cc(-c3cc(NS(=O)(=O)c4cc(Cl)cnc4OC)cc(F)c3F)ccc2n1 [Example 55] | 100 to 500 | 500 to 1000 |
| CNc1cc2ncc(-c3cc(F)cc(NS(=O)(=O)c4cc(Cl)cnc4OC)c3)cc2cn1 [Example 58] | 1000 to 10000 | 1000 to 10000 |
| CNc1cc2ncc(-c3cc(NS(=O)(=O)c4cc(Cl)cnc4OC)ccc3F)cc2cn1 [Example 60] | 500 to 1000 | 100 to 500 |
| CNc1ncc2cc(-c3cc(NS(=O)(=O)c4cc(Cl)cnc4OC)ccc3Cl)ccc2n1 [Example 69] | ≤ 100 | 100 to 500 |
| CNc1ncc2cc(-c3cccc(NS(=O)(=O)c4ccc(OC)c(Cl)c4)c3F)ccc2n1 [Example 70] | 100 to 500 | 1000 to 10000 |
| CNc1ncc2cc(-c3cccc(NS(=O)(=O)c4ccc(Br)c(C(F)(F)F)c4)c3F)ccc2n1 [Example 71] | 1000 to 10000 | 1000 to 10000 |
| CNc1ncc2cc(-c3cccc(NS(=O)(=O)c4cc(F)c(Br)cc4F)c3F)ccc2n1 [Example 72] | 100 to 500 | 100 to 500 |
| CNc1ncc2cc(-c3c(F)ccc(NS(=O)(=O)c4cc(Cl)cnc4OC)c3F)c(NC)nc2n1 [Example 73] | 100 to 500 | 100 to 500 |
| CNc1ncc2cc(-c3cc(NS(=O)(=O)c4cc(Cl)cc(Cl)c4)c(F)cc3C)c(C)nc2n1 [Example 75] | 100 to 500 | 500 to 1000 |
| CNc1ncc2cc(-c3cc(NS(=O)(=O)c4cc(Cl)cnc4OC)ccc3C(F)(F)F)ccc2n1 [Example 76] | 1000 to 10000 | 1000 to 10000 |
| CNc1ncc2cc(-c3cc(NS(=O)(=O)c4cc(Cl)cnc4OC)ccc3C(F)(F)F)c(C)nc2n1 [Example 80] | 1000 to 10000 | 500 to 1000 |
| CNc1ncc2cc(-c3cc(NS(=O)(=O)c4cc(Cl)cnc4OC)ccc3OC)ccc2n1 [Example 81] | 1000 to 10000 | 1000 to 10000 |
| CNc1ncc2cc(-c3cc(NS(=O)(=O)c4cc(Cl)cnc4OC)ccc3OC)c(C)nc2n1 [Example 82] | 1000 to 10000 | 1000 to 10000 |
| CNc1ncc2cc(-c3cccc(NS(=O)(=O)c4cc(Cl)cc(OC)c4Cl)c3F)ccc2n1 [Example 83] | ≤ 100 | 100 to 500 |
| CNc1ncc2cc(-c3cccc(NS(=O)(=O)c4ccc(OC)c(C)c4)c3F)ccc2n1 [Example 91] | 100 to 500 | 1000 to 10000 |
| CNc1ncc2cc(-c3cc(Cl)cc(NS(=O)(=O)c4cc(Cl)cnc4OC)c3)c(NC)nc2n1 [Example 94] | 1000 to 10000 | 500 to 1000 |
